In publication PMC6352943, “Novel pyrazolo[3,4-d]pyrimidines: design, synthesis, anticancer activity, dual EGFR/ErbB2 receptor tyrosine kinases inhibitory activity, effects on cell cycle profile and caspase-3-mediated apoptosis” (Journal of Enzyme Inhibition and Medicinal Chemistry, 2019):

Columns and labels:
Assay type in all cases: cell-based, human
ACHN = assay: MTT cell viability assay
Protocol: (§1) Cell Line cells were obtained from American Type Culture Collection, cells were cultured using Dulbecco's Modified Eagle's medium (DMEM) (Invitrogen/Life Technologies) supplemented with 10% foetal bovine serum (FBS) (Hyclone), 10 μg/mL of insulin (Sigma), and 1% penicillin-streptomycin. All of the other chemicals and reagents were from Sigma, or Invitrogen. Plate cells (cells density 1.2 – 1.8 × 10,000 cells/well) in a volume of 100 µL complete growth medium and 100 μL of the tested compound per well in a 96-well plate for 24 h before the MTT assay.
(§2) Remove culture medium to a centrifuge tube. […] Add 2.0 to 3.0 ml of Trypsin EDTA solution to flask and observe cells under an inverted microscope until cell layer is dispersed. Add 6 to 8 ml of complete growth medium and aspirate cells by gently pipetting. Transfer the cell suspension to the centrifuge tube with the medium and centrifuge for 5 to 10 min. Discard the supernatant. Resuspend the cell pellet in fresh growth medium. Add appropriate aliquots of the cell suspension to new culture vessels. Incubate cultures at 37 °C for 24 h. After treatment of cells with the serial concentrations of the compound to be tested incubation is carried out for 48 h at 37 °C, then the plates are to be examined under the inverted microscope and proceed for the MTT assay.
(§3) The 3–(4, 5-dimethylthiazol-2-yl)-2,5-diphenyltetrazolium bromide (MTT) method[30] of monitoring in vitro cytotoxicity is well suited for use with multiwell plates. The assessment of cell population growth is based on the capability of living cells to reduce the yellow product MTT to a blue product, formazan, by a reduction reaction occurring in the mitochondria. The five cell lines were incubated for 24 h in 96-microwell plates. The number of living cells in the presence or absence (control) of the various test compounds is directly proportional to the intensity of the blue colour, measured by spectrophotometry using (ROBONIK P2000 Spectrophotometer) at a wavelength of 570 nm. Measure the background absorbance of multiwell plates at 690 nm and subtract from the 570 nm measurement. Five concentrations ranging from 0.01 μM to 100 μM (with semi-log decrease in concentration) were tested for each of the compounds under study. Each experiment was carried out in triplicate. The IC50 values [the concentration required for 50% inhibition of cell viability] were calculated using sigmoidal dose response curve-fitting models.

NCI-H460 = assay: MTT cell viability assay
Protocol: as §1, §2, §3

OVCAR-4 = assay: MTT cell viability assay
Protocol: as §1, §2, §3

OVCAR-4 cells [1] = assay: Cell cycle analysis by flow cytometry (PI)
Protocol: After treatment, the cells were washed twice with ice-cold PBS, collected by centrifugation, and fixed in ice-cold 70% (v/v) ethanol, washed with PBS, re-suspended with 0.1 mg/mL RNase, stained with […] propidium iodide (PI), and analysed by flow cytometry using FACS Calibur (Becton Dickinson)[31]. The cell cycle distributions were calculated using Cell-Quest software (Becton Dickinson).

OVCAR-4 cells [2] = assay: Annexin V-FITC/PI apoptosis assay
Protocol: Annexin V fluorescein isothiocyanate (FITC)/PI apoptosis detection kit (BD Biosciences) was used according to the manufacturer’s instructions to measure the apoptotic activity of compound 7d. OVCAR-4 cells were incubated with Annexin V-FITC. […] The cells then were collected by trypsinisation and 0.5 × 10^6 cells were washed twice with PBS and stained with 5 μL Annexin V-FITC and 5 μL PI in 1 × binding buffer for 15 min at room temperature in the dark. Analyses were performed using FACS Calibur flow cytometer (BD Biosciences, San Jose, CA).
The apoptotic activity of compound 7d was further studied using Annexin V-FITC assay, which includes dual staining using Annexin V, a Ca^2+-dependent protein, and Propidium iodide (PI). Annexin V binds to phosphatidylserine (PS) expressed only on the surface of the apoptotic cells and fluoresces green after interacting with the fluorochrome labelled annexin-V. On the other hand, PI stains DNA and enters only dead cells. This assay can give a differential analysis to the percentages of living, early apoptotic, late apoptotic and necrotic cells. […] Moreover, a significant increase in the percentage of Annexin-V positive cells (almost 9 folds more than control) occurred indicating an early apoptosis (lower right quadrant). In addition, an increase by 7 folds more than control in the percentage of PI positive cells (upper left quadrant) indicating necrotic cells. Some treated cells were in a late apoptotic stage (upper right quadrant), this was indicated by the significant increase in the percentage of Annexin V positive, PI positive cells (16 folds more than control).

[3] = OVCAR-4, 7d at IC50 (1.74 μM), 24 h

## Cc1nn(-c2ccc(F)cc2)c2ncnc(Nc3ccc(F)c(Cl)c3)c12 [Compound 7d, N-(3-Chloro-4-fluorophenyl)-1–(4-fluorophenyl)-3-methyl-1H-pyrazolo[3,4-d] pyrimidin-4-amine]
ACHN; ACHN, from IC50 values
  Potency relative to Erlotinib (fold more potent): 2.2 fold
ACHN; Homo sapiens, ACHN renal cancer, MTT, 48 h, mean ± SD of three experiments, read-out: IC50 (concentration required for 50% inhibition of cell viability)
  IC50: 5.53 ± 0.31 µM
NCI-H460; Homo sapiens, NCI-H460 lung cancer, MTT, 48 h, mean ± SD of three experiments, read-out: IC50 (concentration required for 50% inhibition of cell viability)
  IC50: 4.44 ± 0.26 µM
NCI-H460; NCI-H460, from IC50 values
  Potency relative to Erlotinib (fold more potent): 1.9 fold
OVCAR-4; Homo sapiens, OVCAR-4 ovarian cancer, MTT, 48 h, mean ± SD of three experiments, read-out: IC50 (concentration required for 50% inhibition of cell viability)
  IC50: 1.74 ± 0.06 µM
OVCAR-4; OVCAR-4, from IC50 values
  Potency relative to Erlotinib (fold more potent): 1.6 fold
OVCAR-4 cells [1]; [3]
  Cell cycle distribution %Apoptosis (pre-G1): 21.71%
  Cell cycle distribution %G0/G1: 29.77%
  Cell cycle distribution %G2/M: 36.44%
  Cell cycle distribution %S: 33.79%
OVCAR-4 cells [1]; OVCAR-4, at IC50, 24 h
  Increase in cells accumulated in pre-G1 phase compared to control: ~11 folds
  Increase in percentage of cells at G2/M phases compared to control: 5 folds
OVCAR-4 cells [2]; OVCAR-4, 7d at IC50 (1.74 μM), 24 h, lower right quadrant
  %Apoptosis Early: 7.52%
OVCAR-4 cells [2]; OVCAR-4, 7d at IC50 (1.74 μM), 24 h, upper left quadrant
  %Necrosis: 2.88%
OVCAR-4 cells [2]; OVCAR-4, 7d at IC50 (1.74 μM), 24 h, upper right quadrant
  %Apoptosis Late: 11.31%
OVCAR-4 cells [2]; OVCAR-4, at IC50, 24 h
  Increase in percentage of Annexin V positive, PI positive cells (late apoptosis) versus control: 16 folds
  Increase in percentage of Annexin-V positive cells (early apoptosis) versus control: ~9 folds
  Increase in percentage of PI positive cells (necrotic cells) versus control: 7 folds
